Experimental data taken from PMC7177633, “Effective Cellular Transport of Ortho-Halogenated Sulfonamide Derivatives of Metformin Is Related to Improved Antiproliferative Activity and Apoptosis Induction in MCF-7 Cells” (International Journal of Molecular Sciences, 2020).
“And” between values parts separate entries of the source, which are not always exact repeats. Equal values may be shown once. Read-outs that look alike come from different tables or passages of the source.

Columns and labels:
OCTs = assay: Inhibition of [14C]choline uptake in MDA-MB-231 cells (competitive inhibition assay); type: cell-based, human; details: mean ± SD (n = 3)
Procedure: The following day, after removal of the culture medium, the cells were carefully washed with prewarmed HBSS (Hanks’ balanced salt solution) containing 125 mM NaCl, 4.8 mM KCl, 1.2 mM MgSO4, 1.2 mM KH2PO4, 1.3 mM CaCl2, 5.6 mM glucose and 25 mM HEPES (pH 7.4). […] Then, the cells were washed three times with ice-cold HBSS (500 μL) and were lysed with 250 μL of 0.1-M NaOH in the ice bath, and the lysate was mixed with 1.0 mL of an emulsifier safe cocktail (PerkinElmer, Waltham, MA, USA). The radioactivity was measured by liquid scintillation counting (MicroBeta^2 counter, PerkinElmer, Waltham, MA, USA). The studies were carried out with the use of at least three replicates from the same cell passage.

MCF-7 cells [1] = assay: Cellular uptake of metformin sulfonamides in MCF-7 cells (HPLC); type: in vitro ADME, human
Procedure: (§1) The uptake of metformin sulfonamides (1–9) in MCF-7 and MDA-MB-231 cells was studied by incubation of the cells with 10−3000 μmol/L of compounds in 250 μL of prewarmed HBSS buffer at 37 °C for 10 min. Subsequently, the cells were then washed three times with 500 μL of ice-cold HBSS and lysed with 250 μL of 0.1-M NaOH. The samples were collected, centrifuged (5 min, 1400 rpm) and the supernatants were analyzed by the HPLC method. The concentration of each compound in the cells was calculated on the basis of the standard curve prepared by spiking known amounts of every compound on the cell layers in 250 μL of 0.1-M NaOH.
(§2) The concentration of the studied sulfonamides (1–9) was assessed using the HPLC system, consisting of an Agilent 1100 binary pump (Agilent Technologies Inc., Wilmington, DE, USA), an 1100 micro-vacuum degasser, an HP 1050 autosampler and an HP 1050 variable wavelength detector (operated at 235 nm). The chromatographic separations of compounds 1–9 were conducted on an Agilent Zorbax SB-C18 analytical column (4.6 mm × 150 mm, 5 μm) using an isocratic elution of water containing 0.1% formic acid (pH ca. 3.0) and acetonitrile containing 0.1% formic acid with a changing ratio, depending on the compound. The analyses were conducted at room temperature (RT). The detailed procedure of chromatographic analysis was described in our previous paper. The studies were conducted in quadruplicates.
(§3) The protein concentrations in representative wells of each plate were assessed using a Bio-Rad protein assay according to the Bradford method (EnVision, PerkinElmer, Inc., Waltham, MA, USA).

MDA-MB-231 cells [2] = assay: Cellular uptake of metformin sulfonamides in MDA-MB-231 cells (HPLC); type: in vitro ADME, human
Procedure: as §1, §2, §3

MCF-7 cells [3] = assay: Uptake in the presence of OCT and MATE inhibitors, MCF-7 cells; type: in vitro ADME, human
Procedure: (§4) The uptake of sulfonamide derivatives of metformin (1–9) in MCF-7 and MDA-MB-231 cells was studied also in the presence of disopyramide, cimetidine (OCT1 and 3 inhibitors), lopinavir (OCT and PMAT inhibitor) and methenamine (MATE and OCT2 inhibitors). The cells were incubated (37 °C, 10 min) with compounds 1–9 at concentrations of 400 and 800 μmol/L and inhibitors (disopyramide, cimetidine, lopinavir or methenamine) in 250 μL of prewarmed HBSS buffer. The protocol of determination of the compound concentration was as described above.

MDA-MB-231 cells [4] = assay: Uptake in the presence of OCT and MATE inhibitors, MDA-MB-231 cells; type: in vitro ADME, human
Procedure: as §4

MCF-7 cells [5] = assay: Cell viability WST-1 assay, MCF-7; type: cell-based; details: Homo sapiens, MCF7; WST-1, 24 h, mean ± SD (n = 6–8); read-out: IC50 inhibition of MCF-7 cells' viability
Procedure: (§5) The viability of MCF-7 and MDA-MB-231 cells was determined using a colorimetric WST-1 assay (Takara, Takara Bio Europe, Saint-Germain-en-Laye, France). Both cell lines were seeded at a density of 1 × 10^4 per well on 96-well plates and were cultured for 24 h to obtain 70% confluence. The following day, the cells were treated with various concentrations of compounds 1–9 diluted in the cell culture medium ([…]). The cells were incubated with tested compounds or pure medium (control) for 24 h (37 °C, 5% CO2). Afterwards, the cells were washed with 100 μL of culture medium, and then, the reagent dissolved in the medium was added (100 μL). The plates were incubated at the standard condition for 1.5 h, and the absorbance was read at 450 nm using a microplate reader (iMARK, Bio-Rad, Bio-Rad Laboratories Inc., Hercules, CA, USA). […] The results of samples treated with the test compounds were expressed as a percentage of the control samples. The data were presented as mean ± standard deviation (SD), n = 8. IC50 values (the concentration of the tested compound that inhibited cell growth by 50%) were calculated using a concentration-response curve (GraphPad Prism, Software, San Diego, CA, USA).
(§6) The concentrations contributing to the 50% of cell growth inhibition (IC50) were calculated using nonlinear regression analysis (fitting the curve to log (concentration) vs. cellular response).

MDA-MB-231 cells [6] = assay: Cell viability WST-1 assay, MDA-MB-231; type: cell-based; details: Homo sapiens, MDA-MB-231; WST-1, 24 h, mean ± SD (n = 6–8); read-out: IC50 inhibition of MDA-MB-231 cells' viability
Procedure: as §5, §6

HUVECs = tested on: HUVECs; design: method as in PMID 31776031; details: concentration range 10–3000 µmol/L; read-out: IC50 viability of HUVECs; cited from earlier work
AoSMC = tested on: AoSMC; design: method as in PMID 31776031; details: concentration range 10–3000 µmol/L; read-out: IC50 viability of AoSMCs; cited from earlier work
[7] = 800 μmol/L, 10 min incubation, 37 °C
[8] = Eadie-Hofstee analysis, transporter I
[9] = Eadie-Hofstee analysis, transporter II
[10] = compound and inhibitor 400 and 800 µmol/L, 10 min, 37 °C
[11] = summary from uptake with inhibitors

CN(C)C(=N)N=C(N)NS(=O)(=O)c1ccc(Cl)cc1 [Compound 3]
IC50 (OCTs): 3760 ± 124 µM | uptake into MCF-7 cells (MCF-7 cells [1]; [7]): 0.84 ± 0.06 nmol/min/mg protein | Vmax, transporter I, MCF-7 (MCF-7 cells [1]; [8]): 1.61 nmol/min/mg and 1.614 ± 0.11 nmol/min/mg | Km (MCF-7 cells [1]; Eadie-Hofstee analysis, transporter I, read-out: Km, transporter I, MCF-7): 0.813 ± 0.0865 mM | Vmax, transporter II, MCF-7 (MCF-7 cells [1]; [9]): 10.76 ± 0.88 nmol/min/mg | Km (MCF-7 cells [1]; Eadie-Hofstee analysis, transporter II, read-out: Km, transporter II, MCF-7): 8.81 ± 0.791 mM | Vmax MCF-7 (Michaelis Menten curves) (MCF-7 cells [1]; Michaelis-Menten curve): 5.073 ± 1.96 nmol/min/mg | Km (MCF-7 cells [1]; Michaelis-Menten curve, read-out: Km MCF-7 (Michaelis Menten curves)): 3.58 ± 1.71 mM | uptake into MDA-MB-231 cells (MDA-MB-231 cells [2]; [7]): 0.42 ± 0.15 nmol/min/mg protein | Vmax, transporter I, MDA-MB-231 (MDA-MB-231 cells [2]; [8]): 1.390 ± 0.23 nmol/min/mg | Km (MDA-MB-231 cells [2]; Eadie-Hofstee analysis, transporter I, read-out: Km, transporter I, MDA-MB-231): 2.37 ± 0.48 mM | Vmax, transporter II, MDA-MB-231 (MDA-MB-231 cells [2]; [9]): 2.20 ± 0.41 nmol/min/mg | Km (MDA-MB-231 cells [2]; Eadie-Hofstee analysis, transporter II, read-out: Km, transporter II, MDA-MB-231): 4.67 ± 0.932 mM | transport efficacy (Vmax/Km) in MCF-7 relative to MDA-MB-231 (MDA-MB-231 cells [2]; fold lower in MDA-MB-231 than in MCF-7): 2.4–3.2 fold | uptake in the presence of cimetidine, MCF-7 (MCF-7 cells [3]; [10]): did not change | uptake in the presence of disopyramide, MCF-7 (MCF-7 cells [3]; [10]): did not change | uptake in the presence of lopinavir, MCF-7 (MCF-7 cells [3]; [10]): did not change | uptake in the presence of methenamine, MCF-7 (MCF-7 cells [3]; [10]): significant decrease | interactions with OCT, PMAT and MATE1 transporters, MCF-7 (MCF-7 cells [3]; [11]): OCT1,MATE1 | uptake in the presence of disopyramide, MDA-MB-231 (MDA-MB-231 cells [4]; [10]): significantly lower uptake | uptake in the presence of lopinavir, MDA-MB-231 (MDA-MB-231 cells [4]; [10]): increased uptake | uptake in the presence of methenamine, MDA-MB-231 (MDA-MB-231 cells [4]; [10]): increased uptake | interactions with OCT, PMAT and MATE1 transporters, MDA-MB-231 (MDA-MB-231 cells [4]; [11]): OCT1, PMAT, MATE1 | IC50 (MCF-7 cells [5]): 1430 ± 135 µM | IC50 (MDA-MB-231 cells [6]): 1040 ± 134 µM | IC50 (HUVECs): 1770 ± 120 µM | IC50 (AoSMC): 1890 ± 110 µM
